Source: PubChem BioAssay (NCI)
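Here, GI50 denotes the concentration required for 50% inhibition of growth. TGI: concentration producing complete growth inhibition.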

Columns and labels:
Assay in all cases: NCI-60 cell line screen, 384-well format
SF-539 CNS = system: SF-539 CNS
NCI-H322M lung = system: NCI-H322M lung
786-0 renal = system: 786-0 renal
CCRF-CEM leukemia = system: CCRF-CEM leukemia
COLO 205 colon = system: COLO 205 colon
NCI-H460 NSCLC = system: NCI-H460 NSCLC
SK-MEL-2 melanoma = system: SK-MEL-2 melanoma
SK-MEL-28 melanoma = system: SK-MEL-28 melanoma
SF-268 CNS = system: SF-268 CNS
PC-3 prostate = system: PC-3 prostate
HS 578T breast = system: HS 578T breast
BT-549 breast = system: BT-549 breast
HL-60(TB) leukemia = system: HL-60(TB) leukemia
SN12C renal = system: SN12C renal
MCF7 breast = system: MCF7 breast
MDA-MB-435 melanoma = system: MDA-MB-435 melanoma
M14 melanoma = system: M14 melanoma
HCT-15 colon = system: HCT-15 colon
SK-OV-3 ovarian = system: SK-OV-3 ovarian
HT29 colon = system: HT29 colon
MDA-MB-468 breast = system: MDA-MB-468 breast
MALME-3M melanoma = system: MALME-3M melanoma
SF-295 CNS = system: SF-295 CNS
HCC-2998 colon = system: HCC-2998 colon
A549 NSCLC = system: A549 NSCLC
NCI-H522 lung = system: NCI-H522 lung
HCT-116 colon = system: HCT-116 colon
SNB-75 CNS = system: SNB-75 CNS

Structure (SMILES): CC(C)N=C(N)/N=C(\N)Nc1ccc2ccc3ccccc3c2c1
- TGI (SF-539 CNS): 3.13 µM
- GI50 (NCI-H322M lung): 1840 nM
- TGI (NCI-H322M lung): 3.25 µM
- GI50 (786-0 renal): 1750 nM
- TGI (786-0 renal): 3.14 µM
- GI50 (CCRF-CEM leukemia): 1440 nM
- TGI (CCRF-CEM leukemia): 2770 nM
- GI50 (COLO 205 colon): 1760 nM
- TGI (COLO 205 colon): 3.16 µM
- GI50 (NCI-H460 NSCLC): 1750 nM
- TGI (NCI-H460 NSCLC): 3.17 µM
- GI50 (SK-MEL-2 melanoma): 1840 nM
- TGI (SK-MEL-2 melanoma): 3.24 µM
- GI50 (SK-MEL-28 melanoma): 1850 nM
- TGI (SK-MEL-28 melanoma): 3.27 µM
- GI50 (SF-268 CNS): 1870 nM
- TGI (SF-268 CNS): 3.29 µM
- GI50 (PC-3 prostate): 1520 nM
- TGI (PC-3 prostate): 2870 nM
- GI50 (HS 578T breast): 1720 nM
- TGI (HS 578T breast): 3.1 µM
- GI50 (BT-549 breast): 1490 nM
- TGI (BT-549 breast): 2830 nM
- GI50 (HL-60(TB) leukemia): 1410 nM
- TGI (HL-60(TB) leukemia): 2720 nM
- GI50 (SN12C renal): 1650 nM
- TGI (SN12C renal): 3.02 µM
- GI50 (MCF7 breast): 507 nM
- TGI (MCF7 breast): 1850 nM
- GI50 (MDA-MB-435 melanoma): 1730 nM
- TGI (MDA-MB-435 melanoma): 3.12 µM
- GI50 (M14 melanoma): 1890 nM
- TGI (M14 melanoma): 3.3 µM
- GI50 (HCT-15 colon): 1670 nM
- TGI (HCT-15 colon): 3.07 µM
- GI50 (SK-OV-3 ovarian): 1420 nM
- TGI (SK-OV-3 ovarian): 2730 nM
- GI50 (HT29 colon): 1710 nM
- TGI (HT29 colon): 3.13 µM
- GI50 (MDA-MB-468 breast): 242 nM
- TGI (MDA-MB-468 breast): 1470 nM
- GI50 (MALME-3M melanoma): 1430 nM
- TGI (MALME-3M melanoma): 2750 nM
- GI50 (SF-295 CNS): 1650 nM
- TGI (SF-295 CNS): 3.02 µM
- GI50 (HCC-2998 colon): 1400 nM
- TGI (HCC-2998 colon): 2710 nM
- GI50 (A549 NSCLC): 1730 nM
- TGI (A549 NSCLC): 3.14 µM
- GI50 (NCI-H522 lung): 1560 nM
- TGI (NCI-H522 lung): 2910 nM
- GI50 (HCT-116 colon): 1710 nM
- TGI (HCT-116 colon): 3.14 µM
- GI50 (SNB-75 CNS): 1610 nM
- TGI (SNB-75 CNS): 2960 nM
